We go through six molecules from patent publication US5990326A, “3-oxiranyl benzoic acids and derivatives thereof” (G.D. Searle & Co., priority 1992, dated 1999).

Counter-ions that a name gives are not always drawn.

Experiment [1] has as its system A23187-Induced LTB4 Production in Human Promyelocytic Leukemia HL-60 Cells. The experiment in a line: A23187-Induced LTB4 Production in Human Promyelocytic Leukemia HL-60 Cells (HL-60 Cell Assay). It is filed as cell-based. The arrangement: key to HL-60 Cell Assay % Inhibition: I: inactive at that concentration. The note with it: for IC50: A23187-stimulated HL-60 cells, LTB4. An excerpt:
A23187-Induced LTB4 Production in Human Promyelocytic Leukemia HL-60 Cells.
Materials: Calcium ionophore A23187 was obtained from Calbiochem (La Jolla, Calif.). Trans-stilbene oxide was obtained from Sigma (St. Louis, Mis.). Hanks' balanced salt solution (HBSS) (10× concentrate), 1M Hepes, and Dulbecco's modified Eagle medium were obtained from GIBCO Laboratories (Grand Island, N.Y.). Fetal bovine serum was obtained from HyClone Laboratories (Logan, Utah). The LTB4 and PGE2 radioimmunoassay antibodies were purchased from Amersham International plc (Amersham, UK) and NEN Research Products (N. Billerica, Mass.), respectively. Reagents for assay of lactate dehydrogenase (LDH) activity were purchased from Beckman (Carlsbad, Calif.).
Preparation of HL-60 Cells: HL-60 cells were cultured in Dulbecco's modified Eagle medium (supplemented with 20% fetal bovine serum, 20 mM Hepes, 100 U/ml penicillin and 100 mcg/ml streptomycin) and maintained at 37° C. in a humidified atmosphere of 5% CO2 in air. Cells from exponentially growing cultures were seeded at 3×10^5 cells/ml and induced to differentiate into granulocytes wth 0.8% (v/v) N,N-dimethylformamide for 4 days (1,2). Prior to assay, differentiated HL-60 cells were washed once with Hanks' balanced salt solution containing 0.35 mg/ml sodium bicarbonate and 10 mM Hepes, pH 7.3 (HBSS) and resuspended in HBSS at a concentration of 3×10^6 cells/ml. HL-60 cell viability was >95% as assessed by trypan blue exclusion.
HL-60 Cell Assay: DMSO or test compounds as 100× concentrates in DMSO were added in duplicate to 1.0 ml HL-60 cell suspensions (3×10^6cells) and preincubated at 37° C. for 10 minutes in a shaking water bath. After an additional 5 minute incubation with calcium ionophore A23187 (10 mcl @ 5×10^-4 M in DMSO), the cells were pelleted at 12,800×g for 15 seconds and the supernatant removed and stored at -20° C. for quantification of LTB4 or PGE2 via radioimmunoassay and LDH activity.
Statistical Methods: LTB4 and PGE2 data were expressed as percent inhibition of A23187-stimulated controls. For IC50 determinations, the 4 parameter logistic model was used where y is the percent inhibition response and x is the log10 concentration of the inhibitor: [formula] Nonlinear regression was performed using the SAS (3) procedure NLIN to obtain least squares estimates of the four parameters in the above equation: yx (maximum), Y0 (minimum), a (log10 IC50) and b (slope factor). Increases in mean LDH levels for A23187-stimulated cells in the presence of test compound were tested for significance using a one-tailed two sample Student's t-test.

Another experiment has as its target T1, LTA4 hydrolase (Rattus norvegicus, UniProt P30349).
T1 construct: the supernatant containing cytosolic LTA4 hydrolase was obtained; from tissue; host or cells: peritoneal neutrophils (90-95% pure, oyster-glycogen elicited) of male Sprague Dawley rats; 100,000 x G supernatant of the homogenate
T1 sequence (P30349 1-611): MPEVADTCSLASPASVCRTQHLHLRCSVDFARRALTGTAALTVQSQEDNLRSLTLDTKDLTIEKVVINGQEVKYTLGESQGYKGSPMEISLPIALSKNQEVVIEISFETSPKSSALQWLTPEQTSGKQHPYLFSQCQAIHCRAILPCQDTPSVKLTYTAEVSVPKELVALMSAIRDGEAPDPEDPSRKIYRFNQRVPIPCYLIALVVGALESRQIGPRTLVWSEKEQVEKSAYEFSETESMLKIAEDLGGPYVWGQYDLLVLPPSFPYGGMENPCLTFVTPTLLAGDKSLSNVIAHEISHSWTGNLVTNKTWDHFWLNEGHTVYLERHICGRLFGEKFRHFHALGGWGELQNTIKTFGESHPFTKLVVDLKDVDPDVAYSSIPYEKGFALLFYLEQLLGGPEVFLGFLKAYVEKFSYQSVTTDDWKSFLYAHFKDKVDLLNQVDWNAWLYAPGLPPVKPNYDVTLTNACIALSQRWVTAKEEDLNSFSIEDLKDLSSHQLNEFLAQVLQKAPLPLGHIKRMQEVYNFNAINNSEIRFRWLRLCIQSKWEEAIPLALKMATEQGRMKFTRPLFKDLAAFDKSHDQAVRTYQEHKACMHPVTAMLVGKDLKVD
The experiment in a line: Leukotriene-A4 (LTA4) Hydrolase Enzyme Assay (inhibition of LTB4 production by rat neutrophil cytosol, RIA). The format is biochemical, rat (male Sprague Dawley). Particulars: for inhibition at 100 µM: 10^-4 M; for IC50: rat neutrophil cytosolic LTA4 hydrolase. An excerpt: Leukotriene --A4 Hydrolase Inhibition Materials
Leukotriene-A4 -methyl ester and leukotriene-A3 were purchased from Biomol (Cambridge). Trans-stilbene oxide, EDTA, phenylmethyl sulphonyl fluoride were purchased from Sigma (St. Louis). Eagles Basil Media was purchased from GIBCO (Grand Island). LTB4 radioimmunoassay kit was purchased from Amersham (Arlington Heights, Ill.) (#Trk. 840).
Methods were modified from those reported by Evans et al., Biochem. Biophys. Acta, 840:43-50 (1985).
Male Sprague Dawley (CD1) rats (250-400 gm bodyweight) were given oyster glycogen, 1 mg/ml in 0.9% NaCl, by intraperitoneal injection. The animals were sacrificed after 8-20 hours and the peritoneal cavity washed with 10 ml Eagles Basil Medium (pH 7.4, 25 mM HEPES, without glutamine). The collected peritoneal lavage fluid was centrifuged at 150×G, 15 minutes at 4° C. to isolate the neutrophils. The supernatant was removed and the cell pellet was resuspended in 20 cc 10 mM sodium phosphate buffer, pH 7.0 with 2 mM Na-EDTA and 1 mM phenylmethyl sulphonyl fluoride (PMSF).
Leukotriene-A4 Hydrolase Isolation
The cell suspensions, which were 90-95% neutrophils as determined by cytometry, were homogenized by a polytron at 4° C. with three 30 second bursts with cooling on ice in between. The homogenate was centrifuged at 100,000×G for 60 minutes, and the supernatant containing cytosolic LTA4 hydrolase was obtained.
LTA4 Methyl Ester Deesterificaiton
LTA4, the substrate for LTA4 hydrolase, is supplied as the stable methyl ester that must be hydrolized to the active form. LTA4 -methyl ester (5000 ng) was dried under a stream of super-dry Argon (Matheson) to which was added a 1 ml methanol: 10M NaOH (9.8:0.2 v/v). The mixture was stirred 3 hours at 4° C. and used immediately.
LTA4 Hydrolase Enzyme Assay
Supernatant containing LTA4 hydrolase, 0.5 ml, was added to 0.5 ml Tris-acetate buffer, pH 7.8, containing 1 mg/ml fatty-acid free BSA. The mixture was incubated 3 minutes at 37° C. with 0.1 ml containing different enzyme inhibitor and test compound concentrations in DMSO. LTA4, 25 ng in 20 μl methanol, was added and incubation with shaking continued at 37° C. for one minute. The reaction was quenched with 2 ml ice-cold ethanol. The quenched mixture was immediately frozen at -76° C. LTB4 levels were determined by radioimmunoassay (RIA) with a validated commercial kit. Various concentrations of potential enzyme inhibitors were evaluated for inhibition of LTB4 production using a standardized amount of enzyme and substrate. The amount of inhibitor necessary to reduce LTB4 production by fifty percent was calculated as the IC50 value for each inhibitor. IC50 values were determined by least square linear regression analysis from the average ±SEM for 4 experiments.

One may read the inhibition as the percentage by which the read-out fell short of the control. Usually IC50 stands for the point on the concentration scale where inhibition reaches its midpoint. For `CCCCCCCC/C=C/C=C/C=C/C1OC1c1cccc(C(=O)O)c1` (centres unmarked) [Example 7,Li^+ salt], in experiment [1] (10^-6 M), the “HL-60 Cell Assay % Inhibition” value was “I”. In addition, 50 µM produced 80% inhibition in experiment [1] (Homo sapiens, HL-60, 5 × 10^-5 M). In experiment [1] (Homo sapiens, HL-60, 10^-5 M), this molecule gave an inhibition at 10 µM of 61%. Besides, in experiment [1] (Homo sapiens), the midpoint of inhibition, the IC50, lay at 15 µM. At LTA4 hydrolase, this molecule showed an inhibition at 100 µM of 85% and an IC50 of 2 µM.

As to `CCCCCCCCCCCCCC[C@@H]1O[C@H]1c1cccc(C(=O)OC)c1` (relative stereo) [Example 22, Methyl 3-(3-tetradecyloxiranyl)benzoate], the “HL-60 Cell Assay % Inhibition” value in experiment [1] (10^-5 M) is on record as “I”. For the same molecule, the inhibition at 100 µM is 79% in experiment [1] (Homo sapiens, HL-60, 10^-4 M) and 20% against LTA4 hydrolase.

As for `CCCCCCCCCCCC/C=C/C1OC1c1cccc(C(=O)OC)c1` (centres unmarked) [Example 1, Methyl 3-[3-(1E-tetradecenyl)oxiranyl]benzoate], the “HL-60 Cell Assay % Inhibition” value in experiment [1] (10^-4 M) is “I”.

`CCCCCCCCCC/C=C/C=C/C1OC1c1cccc(C(=O)O)c1` (centres unmarked) [Example 4,Li^+ salt]: the inhibition at 100 µM in experiment [1] (Homo sapiens, HL-60, 10^-4 M) was 88%; against LTA4 hydrolase it was 58%. The same molecule came in with an inhibition at 10 µM in experiment [1] (Homo sapiens, HL-60, 10^-5 M) of 89%. Further, the inhibition at 1 µM in experiment [1] (Homo sapiens, HL-60, 10^-6 M) worked out at 77%. In addition, the IC50 came out at 0.16 µM in experiment [1] (Homo sapiens) and 80 µM against LTA4 hydrolase.

`CCCCCCCCCC/C=C/C=C/C1OC1c1cccc(C(=O)OC)c1` (centres unmarked) [Example 4, Methyl 3-[3-(1E,3E-tetradecadienyl)oxiranyl]benzoate]: in experiment [1] (10^-5 M), the “HL-60 Cell Assay % Inhibition” value is on record as “I”. For the same molecule, the inhibition at 100 µM in experiment [1] (Homo sapiens, HL-60, 10^-4 M) worked out at 29%.

As to `CCCCCCCCCCCC/C=C/C1OC1c1cccc(C(=O)O)c1` (centres unmarked) [Example 1,Li^+ salt], the inhibition at 100 µM was 94% in experiment [1] (Homo sapiens, HL-60, 10^-4 M) and 40% against LTA4 hydrolase. The inhibition at 10 µM in experiment [1] (Homo sapiens, HL-60, 10^-5 M) worked out at 96%. The molecule also returned an inhibition at 1 µM in experiment [1] (Homo sapiens, HL-60, 10^-6 M) of 26%. This molecule also yielded a concentration for half-maximal inhibition (IC50) in experiment [1] (Homo sapiens) of 2.8 µM.
